Measured values: patent US20100022531A1, “NOVEL COMPOUNDS AS P2X7 MODULATORS AND USES THEREOF” (RENOVIS, INC., priority 2005, published 2010)

Target: T1, P2X7 receptor (Homo sapiens, UniProt Q99572)
T1 construct: host or cells: THP-1 cells differentiated with LPS and IFN-γ
T1 sequence (Q99572 1-595): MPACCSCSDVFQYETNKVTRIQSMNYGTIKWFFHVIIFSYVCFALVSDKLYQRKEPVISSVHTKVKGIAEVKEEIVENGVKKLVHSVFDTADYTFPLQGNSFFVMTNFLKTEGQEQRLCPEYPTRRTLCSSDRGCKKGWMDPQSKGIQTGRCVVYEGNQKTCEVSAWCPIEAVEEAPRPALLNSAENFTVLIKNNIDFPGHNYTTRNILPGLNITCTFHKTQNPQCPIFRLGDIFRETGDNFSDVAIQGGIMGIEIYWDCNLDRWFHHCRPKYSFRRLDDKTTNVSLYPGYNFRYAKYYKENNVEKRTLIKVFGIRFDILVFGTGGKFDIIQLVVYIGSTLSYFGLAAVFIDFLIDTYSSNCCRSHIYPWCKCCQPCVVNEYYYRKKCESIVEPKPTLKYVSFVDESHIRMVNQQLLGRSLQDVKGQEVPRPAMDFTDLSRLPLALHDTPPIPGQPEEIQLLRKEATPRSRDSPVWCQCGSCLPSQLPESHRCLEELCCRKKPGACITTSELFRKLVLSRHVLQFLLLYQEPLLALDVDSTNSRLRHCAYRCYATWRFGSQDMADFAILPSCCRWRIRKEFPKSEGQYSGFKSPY
Assay: Alternate method for IL-1β release assay (differentiated THP-1 cells, BzATP-stimulated, ELISA)
Type: cell-based
Conditions: P2X7; 0.1 μM compound (plus symbols); read-out: IL-1β % inhib @ 0.1 μM
Method in brief: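 After 16 h differentiation with 100 ng/mL LPS and 100 ng/mL IFN-γ plus a further 2 h LPS priming, THP-1 cells were pretreated 30 min with compound, then stimulated with 250 uM BzATP (final) for 45 min. Supernatant IL-1β measured by ELISA; percent inhibition from background-adjusted levels versus untreated cells.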

Row | inhibition at 0.1 µM [%] | Compound
1 | 50 to 75 | O=C(COc1ccccc1)N1CCc2c(ncnc2NCC23CC4CC(CC(C4)C2)C3)C1 [Compound 104]
2 | 25 to 50 | O=S(=O)(c1ccc(F)cc1F)N1CCc2c(ncnc2NCC23CC4CC(CC(C4)C2)C3)C1 [Compound 66]

Same assay, conditions: P2X7; 0.1 μM compound (symbols + to ++++); read-out: IL-1β % inhib @ 0.1 μM

Row | Compound | inhibition at 0.1 µM [%]
3 | FC12CC3CC(C1)CC(CNc1ncnc4c1CCN(Cc1ccccc1)C4)(C3)C2 [Compound 252] | > 75
4 | O=C(OCc1ccccc1Cl)N1CCc2c(ncnc2NCC23CC4CC(CC(C4)C2)C3)C1 [Compound 339] | > 75
5 | O=C(OCc1cnccn1)N1CCc2c(ncnc2NCC23CC4CC(CC(C4)C2)C3)C1 [Compound 348] | 25 to 50

The remaining lines, values ahead:

Row | inhibition at 0.1 µM [%] | Compound
6 | 50 to 75 | O=C(OCc1ccc(C(F)(F)F)cc1)N1CCc2c(ncnc2NCC23CC4CC(CC(C4)C2)C3)C1 [Compound 324]
7 | 0 to 25 | O=C(C1CCOC1)N1CCc2c(ncnc2NCC23CC4CC(CC(C4)C2)C3)C1 (stereo not drawn) [Compound 249, {4-[(Adamantan-1-ylmethyl)-amino]-5,8-dihydro-6H-pyrido[3,4-d]pyrimidin-7-yl}-(tetrahydro-furan-3-yl)-methanone]
8 | 50 to 75 | O=C(OCc1cccnc1)N1CCc2c(ncnc2NCC23CC4CC(CC(C4)C2)C3)C1 [Compound 328]
9 | 50 to 75 | Cc1cc(COC(=O)N2CCc3c(ncnc3NCC34CC5CC(CC(C5)C3)C4)C2)nn1C [Compound 347]

Same assay, conditions: P2X7; 0.3 μM compound (asterisk symbols); read-out: IL-1β % inhib @ 0.3 μM

Row | Compound | inhibition at 0.3 µM [%]
10 | CC12CC3CC(C)(C1)CC(CNc1ncnc4c1CCN(Cc1ccccc1)C4)(C3)C2 [Compound 2] | 0 to 25
11 | COc1ccc(OC)c(S(=O)(=O)N2CCc3c(ncnc3NCC34CC5CC(CC(C5)C3)C4)C2)c1 [Compound 72] | 25 to 50
12 | O=S(=O)(c1ccc(F)c(Cl)c1)N1CCc2c(ncnc2NCC23CC4CC(CC(C4)C2)C3)C1 [Compound 49] | 50 to 75
13 | O=C(c1cccc(C(F)(F)F)c1)N1CCc2c(ncnc2NCC23CC4CC(CC(C4)C2)C3)C1 [Compound 89] | 25 to 50
14 | Cc1ccc2occ(CN3CCc4c(ncnc4NCC45CC6CC(CC(C6)C4)C5)C3)c(=O)c2c1 [Compound 178] | 25 to 50
15 | O=S(=O)(c1cccc(OC(F)(F)F)c1)N1CCc2c(ncnc2NCC23CC4CC(CC(C4)C2)C3)C1 [Compound 20] | 25 to 50
16 | Cc1nn(C)c(Cl)c1S(=O)(=O)N1CCc2c(ncnc2NCC23CC4CC(CC(C4)C2)C3)C1 [Compound 18] | 0 to 25
17 | CC(C)CCN1CCc2c(ncnc2NCC23CC4CC(CC(C4)C2)C3)C1 [Compound 194] | 25 to 50
18 | COc1ccc(CN2CCc3c(ncnc3NCC34CC5CC(CC(C5)C3)C4)C2)c(Cl)c1OC [Compound 197] | 0 to 25
19 | O=S(=O)(c1ccccc1Cl)N1CCc2c(ncnc2NCC23CC4CC(CC(C4)C2)C3)C1 [Compound 48] | > 75
20 | Cc1ccc(S(=O)(=O)N2CCc3c(ncnc3NCC34CC5CC(CC(C5)C3)C4)C2)cc1 [Compound 5] | 50 to 75
21 | COc1cc(OC)cc(C(=O)N2CCc3c(ncnc3NCC34CC5CC(CC(C5)C3)C4)C2)c1 [Compound 101] | 0 to 25
22 | O=S(=O)(c1ccc(Oc2ccc(C(F)(F)F)cc2)cc1)N1CCc2c(ncnc2NCC23CC4CC(CC(C4)C2)C3)C1 [Compound 33] | 0 to 25
23 | CC(CCN1CCc2c(ncnc2NCC23CC4CC(CC(C4)C2)C3)C1)CC(C)(C)C (stereo not drawn) [Compound 163] | > 75
24 | N#Cc1ccc(S(=O)(=O)N2CCc3c(ncnc3NCC34CC5CC(CC(C5)C3)C4)C2)c(Cl)c1 [Compound 23] | 0 to 25
25 | O=S(=O)(c1cc(C(F)(F)F)ccc1Cl)N1CCc2c(ncnc2NCC23CC4CC(CC(C4)C2)C3)C1 [Compound 37] | 25 to 50
26 | N#Cc1ccccc1S(=O)(=O)N1CCc2c(ncnc2NCC23CC4CC(CC(C4)C2)C3)C1 [Compound 74] | 25 to 50

Now from value to molecule:

Row | inhibition at 0.3 µM [%] | Compound
27 | 25 to 50 | CCN1CCc2c(ncnc2NCC23CC4CC(CC(C4)C2)C3)C1 [Compound 190]
28 | 50 to 75 | CCCS(=O)(=O)N1CCc2c(ncnc2NCC23CC4CC(CC(C4)C2)C3)C1 [Compound 8]
29 | 50 to 75 | CCc1ccc(C(=O)N2CCc3c(ncnc3NCC34CC5CC(CC(C5)C3)C4)C2)cc1 [Compound 85]
30 | > 75 | c1nc2c(c(NCC34CC5CC(CC(C5)C3)C4)n1)CCN(CC1CCCCC1)C2 [Compound 167]
31 | 25 to 50 | COc1cccc(CC(=O)N2CCc3c(ncnc3NCC34CC5CC(CC(C5)C3)C4)C2)c1 [Compound 116]
32 | 25 to 50 | O=C(Cc1ccc(Cl)cc1)N1CCc2c(ncnc2NCC23CC4CC(CC(C4)C2)C3)C1 [Compound 120]
33 | > 75 | O=C(c1cccc(Cl)c1)N1CCc2c(ncnc2NCC23CC4CC(CC(C4)C2)C3)C1 [Compound 108]
34 | 50 to 75 | O=C(Cc1ccccc1)N1CCc2c(ncnc2NCC23CC4CC(CC(C4)C2)C3)C1 [Compound 81]
35 | > 75 | O=C(c1ccc(F)c(F)c1)N1CCc2c(ncnc2NCC23CC4CC(CC(C4)C2)C3)C1 [Compound 88]
36 | 25 to 50 | Cc1ccccc1C(=O)N1CCc2c(ncnc2NCC23CC4CC(CC(C4)C2)C3)C1 [Compound 133]
37 | 25 to 50 | O=C(c1ccc(Cl)c(Cl)c1)N1CCc2c(ncnc2NCC23CC4CC(CC(C4)C2)C3)C1 [Compound 100]

Same assay, conditions: P2X7; 0.3 μM compound (symbols * to ****); read-out: IL-1β % inhib @ 0.3 μM

Row | Compound | inhibition at 0.3 µM [%]
38 | Clc1cccc(CN2CCc3c(ncnc3NCC34CC5CC(CC(C5)C3)C4)C2)c1 [Compound 209] | 0 to 25
39 | Fc1ccc(Br)cc1CN1CCc2c(ncnc2NCC23CC4CC(CC(C4)C2)C3)C1 [Compound 229] | 0 to 25
40 | Fc1ccc(CN2CCc3c(ncnc3NCC34CC5CC(CC(C5)C3)C4)C2)cc1 [Compound 218] | > 75
41 | CCOc1cccc(CN2CCc3c(ncnc3NCC34CC5CC(CC(C5)C3)C4)C2)c1 [Compound 236] | 50 to 75
42 | c1nc2c(c(NCC34CC5CC(CC(C5)C3)C4)n1)CCN(Cc1ccc3c(c1)OCCO3)C2 [Compound 200] | 0 to 25
43 | COc1ccccc1CN1CCc2c(ncnc2NCC23CC4CC(CC(C4)C2)C3)C1 [Compound 226] | > 75
44 | COc1cc(CN2CCc3c(ncnc3NCC34CC5CC(CC(C5)C3)C4)C2)cc(Br)c1OC [Compound 205] | 0 to 25
45 | Fc1cc(Cl)ccc1CN1CCc2c(ncnc2NCC23CC4CC(CC(C4)C2)C3)C1 [Compound 246] | > 75
46 | Fc1ccc(CN2CCc3c(ncnc3NCC34CC5CC(CC(C5)C3)C4)C2)c(F)c1 [Compound 220] | > 75
47 | Brc1ccc(CN2CCc3c(ncnc3NCC34CC5CC(CC(C5)C3)C4)C2)cc1 [Compound 208] | > 75
48 | Fc1cc(C(F)(F)F)ccc1CN1CCc2c(ncnc2NCC23CC4CC(CC(C4)C2)C3)C1 [Compound 223] | > 75
49 | CC(=O)Nc1ccc(CN2CCc3c(ncnc3NCC34CC5CC(CC(C5)C3)C4)C2)cc1 [Compound 227] | 0 to 25
50 | FC(F)(F)Oc1cccc(CN2CCc3c(ncnc3NCC34CC5CC(CC(C5)C3)C4)C2)c1 [Compound 243] | > 75
51 | Clc1ccc(CN2CCc3c(ncnc3NCC34CC5CC(CC(C5)C3)C4)C2)cn1 [Compound 245] | > 75

Other lines, results leading:

Row | inhibition at 0.3 µM [%] | Compound
52 | 25 to 50 | COc1ccc(CN(C)CC(=O)N2CCc3c(ncnc3NCC3C4CC5CC(C4)CC3C5)C2)cc1 (stereo not drawn) [Compound 316]
53 | 0 to 25 | COc1ccc(CN(C)CC(=O)N2CCc3c(ncnc3NCC3C4CC5CC(C4)CC3C5)C2)cc1OC (stereo not drawn) [Compound 296]
54 | 25 to 50 | O=C(CN1CCC(N2CCOCC2)CC1)N1CCc2c(ncnc2NCC2C3CC4CC(C3)CC2C4)C1 (stereo not drawn) [Compound 299]
55 | 50 to 75 | CN(CC(=O)N1CCc2c(ncnc2NCC2C3CC4CC(C3)CC2C4)C1)C1CCCCC1 (stereo not drawn) [Compound 269]
56 | 50 to 75 | CCCCN(C)CC(=O)N1CCc2c(ncnc2NCC2C3CC4CC(C3)CC2C4)C1 (stereo not drawn) [Compound 288]
57 | 0 to 25 | COc1cccc(CN(C)CC(=O)N2CCc3c(ncnc3NCC3C4CC5CC(C4)CC3C5)C2)c1 (stereo not drawn) [Compound 308]
58 | 25 to 50 | CCc1ccc(CN(C)CC(=O)N2CCc3c(ncnc3NCC3C4CC5CC(C4)CC3C5)C2)cc1 (stereo not drawn) [Compound 309]
59 | 25 to 50 | CN(CC(=O)N1CCc2c(ncnc2NCC2C3CC4CC(C3)CC2C4)C1)Cc1ccc(C(F)(F)F)cc1 (stereo not drawn) [Compound 317]
60 | 0 to 25 | O=C(CN1CCC(c2ccccc2)CC1)N1CCc2c(ncnc2NCC2C3CC4CC(C3)CC2C4)C1 (stereo not drawn) [Compound 294]
61 | 25 to 50 | COCCN(C)CC(=O)N1CCc2c(ncnc2NCC2C3CC4CC(C3)CC2C4)C1 (stereo not drawn) [Compound 304]
62 | 25 to 50 | CN(CC(=O)N1CCc2c(ncnc2NCC2C3CC4CC(C3)CC2C4)C1)Cc1cccnc1 (stereo not drawn) [Compound 320]
63 | 0 to 25 | CN(CC(=O)N1CCc2c(ncnc2NCC2C3CC4CC(C3)CC2C4)C1)Cc1ccco1 (stereo not drawn) [Compound 295]
